This test is described as follows: Antioxidation activity by DPPH method. Conditions: 50 μg/ml, positive control. On the procedure:
7) Antioxidation activity measurement test: The antioxidation activity of each sample was measured by a DPPH method using 1.1-diphenyl-2-picrylhydrazyl. The positive control group was treated with BHT at a concentration of 50 μg/ml.
Background: DPPH is a stable violet radical that fades when it is reduced.

Consider `Cc1cc(C(C)(C)C)c(O)c(C(C)(C)C)c1` [BHT], for which the DPPH inhibition came to 10%.

Source of the values: patent publication US20220095663A1, “COMPLEX MUSHROOM MYCELIUM COMPOSITION HAVING LIVER FUNCTION-IMPROVING ACTIVITY AND PREPARATION METHOD THEREFOR” (GIUNCHAN CO., LTD., priority 2019, published 2022).
